Reference: ChEMBL document CHEMBL3091421, “Discovery of benzo[d]imidazo[5,1-b]thiazole as a new class of phosphodiesterase 10A inhibitors” (Bioorg Med Chem Lett, 2013)

What was measured:
[1] = Plasma concentration in Sprague-Dawley rat at 10 mg/kg, po after 30 mins; type: ADME, organism-based; design: dose 10 mg/kg, route oral
Mus musculus [2] = experiment: Ratio of ED50 for antipsychotic activity in ip dosed CD-1 mouse assessed as reduction in apomorphine-induced sniffing behavior to ED50 for antipsychotic activity in ip dosed CD-1 mouse assessed as reduction in apomorphine-induced climbing behavior; type: functional
Mus musculus [3] = experiment: Antipsychotic activity in ip dosed CD-1 mouse assessed as reduction in apomorphine-induced sniffing behavior administered 15 mins prior to apomorphine-challenge measured immediately relative to vehicle-treated control; type: functional; conditions: CD-1, ip
Rattus norvegicus [4] = experiment: Antipsychotic activity in Sprague-Dawley rat assessed as reduction in quipazine-induced head-twitches at 3 mg/kg, ip administered 15 mins prior to quipazine-challenge measured immediately relative to vehicle-treated control; type: functional; design: scale not given: the % may be the effect or the level left; conditions: route intraperitoneal
Rattus norvegicus [5] = experiment: Antipsychotic activity in ip dosed Sprague-Dawley rat assessed as reduction in quipazine-induced head-twitches administered 15 mins prior to quipazine-challenge measured immediately relative to vehicle-treated control; type: functional
Rattus norvegicus [6] = experiment: Antipsychotic activity in Sprague-Dawley rat conditioned avoidance response model assessed as reduction in avoidance at 1 mg/kg, ip after 15 mins relative to vehicle-treated control; type: functional; design: scale not given: the % may be the effect or the level left; conditions: route intraperitoneal
Rattus norvegicus [7] = experiment: Antipsychotic activity in ip dosed Sprague-Dawley rat psychosis model assessed as inhibition of MK-801-induced ataxia administered 5 mins prior to MK-801-challenge measured after 15 mins up to 1 hr relative to vehicle-treated control; type: functional, organism-based
Rattus norvegicus [8] = experiment: Antipsychotic activity in Sprague-Dawley rat psychosis model assessed as inhibition of MK-801-induced ataxia at 10 mg/kg, ip administered 5 mins prior to MK-801-challenge measured after 15 mins up to 1 hr relative to vehicle-treated control; type: functional; conditions: route intraperitoneal
Rattus norvegicus [9] = experiment: Antipsychotic activity in Sprague-Dawley rat psychosis model assessed as inhibition of MK-801-induced ataxia at 6 mg/kg, ip administered 5 mins prior to MK-801-challenge measured after 15 mins up to 1 hr relative to vehicle-treated control; type: functional; conditions: route intraperitoneal
Rattus norvegicus [10] = experiment: Antipsychotic activity in Sprague-Dawley rat psychosis model assessed as inhibition of MK-801-induced ataxia at 0.3 mg/kg, ip administered 5 mins prior to MK-801-challenge measured after 15 mins up to 1 hr relative to vehicle-treated control; type: functional; conditions: route intraperitoneal
Rattus norvegicus [11] = experiment: Antipsychotic activity in Sprague-Dawley rat psychosis model assessed as inhibition of MK-801-induced stereotypy at 6 mg/kg, ip administered 5 mins prior to MK-801-challenge measured after 15 mins up to 1 hr relative to vehicle-treated control; type: functional; conditions: route intraperitoneal
Rattus norvegicus [12] = experiment: Antipsychotic activity in Sprague-Dawley rat psychosis model assessed as inhibition of MK-801-induced stereotypy at 3 mg/kg, ip administered 5 mins prior to MK-801-challenge measured after 15 mins up to 1 hr relative to vehicle-treated control; type: functional; conditions: route intraperitoneal
Rattus norvegicus [13] = experiment: Antipsychotic activity in Sprague-Dawley rat psychosis model assessed as inhibition of MK-801-induced stereotypy at 1 mg/kg, ip administered 5 mins prior to MK-801-challenge measured after 15 mins up to 1 hr relative to vehicle-treated control; type: functional; conditions: route intraperitoneal
Rattus norvegicus [14] = experiment: Antipsychotic activity in Sprague-Dawley rat psychosis model assessed as inhibition of MK-801-induced stereotypy at 0.3 mg/kg, ip administered 5 mins prior to MK-801-challenge measured after 15 mins up to 1 hr relative to vehicle-treated control; type: functional; conditions: route intraperitoneal
Rattus norvegicus [15] = experiment: Antipsychotic activity in Sprague-Dawley rat psychosis model assessed as inhibition of MK-801-induced locomotion at 10 mg/kg, ip administered 5 mins prior to MK-801-challenge measured after 15 mins up to 1 hr relative to vehicle-treated control; type: functional; conditions: route intraperitoneal
Rattus norvegicus [16] = experiment: Antipsychotic activity in Sprague-Dawley rat psychosis model assessed as inhibition of MK-801-induced locomotion at 0.3 mg/kg, ip administered 5 mins prior to MK-801-challenge measured after 15 mins up to 1 hr relative to vehicle-treated control; type: functional; conditions: route intraperitoneal
Rattus norvegicus [17] = experiment: Antipsychotic activity in Sprague-Dawley rat psychosis model assessed as inhibition of MK-801-induced hyperlocomotion at 30 mg/kg, po administered 5 mins prior to MK-801-challenge measured after 15 mins up to 1 hr; type: functional
[18] = AUC (0 to 24 hrs) in Sprague-Dawley rat at 10 mg/kg, po by LC-MS/MS analysis; type: ADME, organism-based; design: time < 24 hr, dose 10 mg/kg, route oral; conditions: plasma
Homo sapiens [19] = species: Homo sapiens; experiment: Selectivity ratio of IC50 for PDE3A (unknown origin) to IC50 for human recombinant PDE10A
Homo sapiens [20] = species: Homo sapiens; experiment: Selectivity ratio of IC50 for PDE1A (unknown origin) to IC50 for human recombinant PDE10A
[21] = molecular target: High affinity cGMP-specific 3',5'-cyclic phosphodiesterase 9A (Homo sapiens) (UniProt O76083); experiment: Inhibition of PDE9A2 (unknown origin) using [3H]-cGMP as substrate at 10 uM after 30 mins by radiometric assay
[22] = molecular target: cGMP-inhibited 3',5'-cyclic phosphodiesterase 3A (Homo sapiens) (UniProt Q14432); experiment: Inhibition of PDE3A (unknown origin) using cAMP as substrate at 10 uM after 30 mins by HTRF method
[23] = Metabolic stability in rat liver microsomes assessed as compound remaining after 60 mins; type: ADME; conditions: read-out: Stability
[24] = molecular target: cAMP and cAMP-inhibited cGMP 3',5'-cyclic phosphodiesterase 10A (Homo sapiens, UniProt Q9Y233); experiment: Inhibition of human recombinant PDE10A using [3H]-cAMP/[3H]-cGMP as substrate after 30 mins by radiometric assay
Chain of cAMP and cAMP-inhibited cGMP 3',5'-cyclic phosphodiesterase 10A (Q9Y233 whole entry): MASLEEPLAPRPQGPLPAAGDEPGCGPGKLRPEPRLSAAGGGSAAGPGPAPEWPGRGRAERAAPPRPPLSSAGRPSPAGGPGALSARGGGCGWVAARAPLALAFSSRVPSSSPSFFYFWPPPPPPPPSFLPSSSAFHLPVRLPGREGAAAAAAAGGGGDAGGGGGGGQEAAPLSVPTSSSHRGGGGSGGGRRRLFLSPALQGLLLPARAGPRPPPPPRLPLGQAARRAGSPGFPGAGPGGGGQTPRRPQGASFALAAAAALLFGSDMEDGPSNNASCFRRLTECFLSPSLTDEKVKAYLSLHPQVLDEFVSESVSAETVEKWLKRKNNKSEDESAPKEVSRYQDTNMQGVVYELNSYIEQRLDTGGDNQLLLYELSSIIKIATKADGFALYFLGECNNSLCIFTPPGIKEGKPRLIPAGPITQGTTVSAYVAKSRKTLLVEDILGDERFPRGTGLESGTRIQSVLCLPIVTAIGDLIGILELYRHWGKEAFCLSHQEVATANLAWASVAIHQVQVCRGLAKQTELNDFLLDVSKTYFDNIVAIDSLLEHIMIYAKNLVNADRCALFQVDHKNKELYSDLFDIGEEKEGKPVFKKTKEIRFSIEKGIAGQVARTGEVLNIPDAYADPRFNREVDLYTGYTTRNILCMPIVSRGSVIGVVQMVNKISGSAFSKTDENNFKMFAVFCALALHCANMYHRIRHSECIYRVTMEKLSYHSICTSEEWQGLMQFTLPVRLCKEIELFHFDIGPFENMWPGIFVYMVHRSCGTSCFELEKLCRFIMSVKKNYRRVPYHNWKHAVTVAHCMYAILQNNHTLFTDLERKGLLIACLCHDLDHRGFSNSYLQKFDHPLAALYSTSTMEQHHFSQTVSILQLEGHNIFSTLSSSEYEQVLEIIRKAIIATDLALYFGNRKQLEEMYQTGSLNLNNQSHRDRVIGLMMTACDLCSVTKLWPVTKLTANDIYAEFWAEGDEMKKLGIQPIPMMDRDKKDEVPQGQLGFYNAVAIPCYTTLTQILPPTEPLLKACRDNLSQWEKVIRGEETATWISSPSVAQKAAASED

Chain of High affinity cGMP-specific 3',5'-cyclic phosphodiesterase 9A (Homo sapiens) (O76083 whole entry): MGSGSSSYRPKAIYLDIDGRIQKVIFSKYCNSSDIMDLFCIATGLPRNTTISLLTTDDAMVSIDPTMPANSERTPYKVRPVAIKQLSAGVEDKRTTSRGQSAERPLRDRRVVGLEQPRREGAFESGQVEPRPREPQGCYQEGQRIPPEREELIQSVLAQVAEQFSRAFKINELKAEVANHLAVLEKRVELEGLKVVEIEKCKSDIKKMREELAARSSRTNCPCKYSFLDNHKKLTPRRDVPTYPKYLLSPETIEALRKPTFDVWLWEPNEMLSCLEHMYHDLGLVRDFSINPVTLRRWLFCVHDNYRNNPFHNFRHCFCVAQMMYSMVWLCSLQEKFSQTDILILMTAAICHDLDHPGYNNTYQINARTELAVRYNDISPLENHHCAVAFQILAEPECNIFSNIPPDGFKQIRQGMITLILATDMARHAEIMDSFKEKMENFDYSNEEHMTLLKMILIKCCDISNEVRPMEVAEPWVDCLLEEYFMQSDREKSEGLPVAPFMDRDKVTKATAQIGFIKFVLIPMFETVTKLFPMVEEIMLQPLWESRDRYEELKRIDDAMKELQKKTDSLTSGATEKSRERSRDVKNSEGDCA
Chain of cGMP-inhibited 3',5'-cyclic phosphodiesterase 3A (Homo sapiens) (Q14432 whole entry): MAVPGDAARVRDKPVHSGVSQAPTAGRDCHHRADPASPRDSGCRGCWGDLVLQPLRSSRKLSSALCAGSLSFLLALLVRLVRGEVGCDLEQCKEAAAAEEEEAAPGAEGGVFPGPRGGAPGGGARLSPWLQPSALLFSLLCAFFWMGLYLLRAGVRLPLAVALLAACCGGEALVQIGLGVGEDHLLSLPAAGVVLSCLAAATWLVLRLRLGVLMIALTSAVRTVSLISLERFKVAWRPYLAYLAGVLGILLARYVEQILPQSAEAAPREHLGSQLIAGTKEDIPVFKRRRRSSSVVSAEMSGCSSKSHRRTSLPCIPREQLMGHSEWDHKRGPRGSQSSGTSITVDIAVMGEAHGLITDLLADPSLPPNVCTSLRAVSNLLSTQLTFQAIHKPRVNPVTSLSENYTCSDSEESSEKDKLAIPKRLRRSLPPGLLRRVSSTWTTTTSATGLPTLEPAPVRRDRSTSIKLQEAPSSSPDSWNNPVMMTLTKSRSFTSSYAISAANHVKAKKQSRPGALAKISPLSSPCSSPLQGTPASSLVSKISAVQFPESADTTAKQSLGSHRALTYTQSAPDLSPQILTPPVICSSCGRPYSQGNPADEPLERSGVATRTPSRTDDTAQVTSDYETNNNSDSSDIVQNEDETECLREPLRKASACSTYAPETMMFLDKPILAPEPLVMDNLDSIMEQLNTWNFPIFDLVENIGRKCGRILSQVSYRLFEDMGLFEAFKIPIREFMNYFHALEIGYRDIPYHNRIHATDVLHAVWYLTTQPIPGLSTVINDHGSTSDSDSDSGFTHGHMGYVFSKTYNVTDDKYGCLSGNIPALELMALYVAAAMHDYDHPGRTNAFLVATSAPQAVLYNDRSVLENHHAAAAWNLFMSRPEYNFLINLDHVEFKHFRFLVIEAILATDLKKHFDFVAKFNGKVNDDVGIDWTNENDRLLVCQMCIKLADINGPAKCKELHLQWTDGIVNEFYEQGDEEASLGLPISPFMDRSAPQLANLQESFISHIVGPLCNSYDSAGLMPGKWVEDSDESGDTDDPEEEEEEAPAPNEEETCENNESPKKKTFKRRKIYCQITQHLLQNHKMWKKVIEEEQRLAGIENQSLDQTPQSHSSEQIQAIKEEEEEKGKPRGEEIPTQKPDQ

With Cc1nc(C2CCOCC2)n2c1sc1cc(OCc3ccc4ccccc4n3)ccc12 the concentration at 0.5 h [1] was 370 ng/mL, the “Ratio ED50” value (Mus musculus [2]) was 6.08 and the ED50 (Mus musculus [3]) was 16.3 mg/kg. The Activity (Rattus norvegicus [4]) was 67%, the ED50 (Rattus norvegicus [5]) was 1.27 mg/kg and the Activity (Rattus norvegicus [6]) was 26%. For the same compound, the inhibition (Rattus norvegicus [7]) was “Dose-dependent effect”, the inhibition in vivo at 10 mg/kg (Rattus norvegicus [8]) was 82% and the inhibition in vivo at 6 mg/kg (Rattus norvegicus [9]) was 46%. It also gave an inhibition in vivo at 0.3 mg/kg (Rattus norvegicus [10]) of 3%, an inhibition in vivo at 6 mg/kg (Rattus norvegicus [11]) of 69% and an inhibition in vivo at 3 mg/kg (Rattus norvegicus [12]) of 27%. The inhibition in vivo at 1 mg/kg (Rattus norvegicus [13]) was 27%, the inhibition in vivo at 0.3 mg/kg (Rattus norvegicus [14]) was 58% and the inhibition in vivo at 10 mg/kg (Rattus norvegicus [15]) was 83%. For the same compound, the inhibition in vivo at 0.3 mg/kg (Rattus norvegicus [16]) was 13%, the inhibition in vivo at 30 mg/kg (Rattus norvegicus [17]) was 75% and the AUC(0-t) at 24 h [18] was 2830 ng·h/mL. For the same compound, the Ratio IC50 (Homo sapiens [19]) was > 500, the Ratio IC50 (Homo sapiens [20]) was > 500 and the inhibition [21] was 16.5%. For the same compound, the inhibition [22] was 11.3%, the remaining at 1 h [23] was 65% and the IC50 [24] was 7.45 nM.
